{"source": "paper PMC11247499", "about": "“2,8-Disubstituted-1,5-naphthyridines as Dual Inhibitors of Plasmodium falciparum Phosphatidylinositol-4-kinase and Hemozoin Formation with In Vivo Efficacy” (Journal of Medicinal Chemistry, 2024)", "key": {"[1]": {"target": "PvPI4K (Plasmodium vivax, UniProt A5KB26)", "sequence (A5KB26 entry or part of it)": "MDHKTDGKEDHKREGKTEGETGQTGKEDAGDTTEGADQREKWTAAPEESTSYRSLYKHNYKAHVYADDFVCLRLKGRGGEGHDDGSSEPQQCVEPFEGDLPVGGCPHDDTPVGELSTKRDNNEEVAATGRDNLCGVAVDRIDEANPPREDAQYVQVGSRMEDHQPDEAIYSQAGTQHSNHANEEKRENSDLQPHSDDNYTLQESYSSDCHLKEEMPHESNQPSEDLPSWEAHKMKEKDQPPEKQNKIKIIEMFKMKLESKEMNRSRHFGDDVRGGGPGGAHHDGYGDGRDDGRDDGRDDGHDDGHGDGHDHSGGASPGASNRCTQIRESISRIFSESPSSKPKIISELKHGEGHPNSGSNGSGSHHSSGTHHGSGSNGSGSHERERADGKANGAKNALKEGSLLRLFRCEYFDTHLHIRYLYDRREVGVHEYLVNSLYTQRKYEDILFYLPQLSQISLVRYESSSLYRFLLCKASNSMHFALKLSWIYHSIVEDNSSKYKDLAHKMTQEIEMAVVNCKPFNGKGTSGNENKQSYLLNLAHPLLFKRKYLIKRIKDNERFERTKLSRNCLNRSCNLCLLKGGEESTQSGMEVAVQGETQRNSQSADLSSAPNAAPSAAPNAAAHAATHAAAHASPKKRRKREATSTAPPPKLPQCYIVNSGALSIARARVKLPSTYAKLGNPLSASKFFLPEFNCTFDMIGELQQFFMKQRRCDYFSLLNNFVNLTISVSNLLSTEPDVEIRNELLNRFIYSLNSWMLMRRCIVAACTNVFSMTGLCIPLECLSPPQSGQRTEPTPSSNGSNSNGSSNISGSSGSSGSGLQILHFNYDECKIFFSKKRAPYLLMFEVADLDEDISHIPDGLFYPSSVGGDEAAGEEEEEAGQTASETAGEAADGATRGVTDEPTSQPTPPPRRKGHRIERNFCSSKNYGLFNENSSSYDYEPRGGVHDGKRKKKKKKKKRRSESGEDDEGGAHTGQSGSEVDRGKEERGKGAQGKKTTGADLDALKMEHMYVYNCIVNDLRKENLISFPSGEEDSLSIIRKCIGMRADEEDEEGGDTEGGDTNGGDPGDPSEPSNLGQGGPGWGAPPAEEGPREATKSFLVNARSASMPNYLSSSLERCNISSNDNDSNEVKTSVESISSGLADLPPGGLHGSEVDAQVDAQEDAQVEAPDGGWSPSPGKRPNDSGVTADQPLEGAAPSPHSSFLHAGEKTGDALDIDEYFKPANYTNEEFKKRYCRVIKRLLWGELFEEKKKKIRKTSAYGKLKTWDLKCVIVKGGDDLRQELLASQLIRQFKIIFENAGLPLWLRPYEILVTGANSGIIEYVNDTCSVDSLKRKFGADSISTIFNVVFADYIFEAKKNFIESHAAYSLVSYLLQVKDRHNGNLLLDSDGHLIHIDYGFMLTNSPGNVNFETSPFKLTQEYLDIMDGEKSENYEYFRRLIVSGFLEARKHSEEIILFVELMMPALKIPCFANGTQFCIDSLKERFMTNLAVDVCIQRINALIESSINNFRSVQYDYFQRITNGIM", "test": "biochemical", "details": "purified recombinant PvPI4K, 10 μM ATP, ADP-Glo; mean of N ≥ 2; read-out: PvPI4K IC50 ± SD"}, "[2]": {"test_system": "P. falciparum NF54 strain", "test": "Antiplasmodial activity, parasite lactate dehydrogenase assay, NF54", "type": "cell-based, Plasmodium falciparum", "details": "Plasmodium falciparum, NF54, 72 h, parasite lactate dehydrogenase assay over 72 h; read-out: Pf IC50 ± SD NF54"}, "[3]": {"test_system": "multidrug-resistant strain, K1", "test": "Antiplasmodial activity, parasite lactate dehydrogenase assay, K1", "type": "cell-based, Plasmodium falciparum", "details": "Plasmodium falciparum, K1, 72 h, parasite lactate dehydrogenase assay over 72 h; read-out: Pf IC50 ± SD K1"}, "[4]": {"test_system": "Chinese Hamster Ovary (CHO) cell line", "test": "cells", "type": "cell-based", "details": "Cricetulus griseus, CHO; MTT assay over 48h; read-out: CHO IC50"}, "[5]": {"test_system": "Dd2", "test": "microbe, parasite or virus in culture", "type": "cell-based", "details": "Plasmodium falciparum, DD2, 72 h, read-out: Dd2 IC50 ± SD"}, "[6]": {"test_system": "Dd2_PI4K_CNV", "test": "microbe, parasite or virus in culture", "type": "cell-based", "details": "Plasmodium falciparum, 72 h, read-out: Dd2_PI4K_CNV IC50"}, "[7]": {"test_system": "P. falciparum PI4K conditional knockdown line", "test": "microbe, parasite or virus in culture", "type": "cell-based, Plasmodium falciparum", "details": "for IC50: Plasmodium falciparum"}, "[8]": {"target": "cytochrome P450 2C9 (Homo sapiens, UniProt P11712)", "sequence (P11712 whole entry)": "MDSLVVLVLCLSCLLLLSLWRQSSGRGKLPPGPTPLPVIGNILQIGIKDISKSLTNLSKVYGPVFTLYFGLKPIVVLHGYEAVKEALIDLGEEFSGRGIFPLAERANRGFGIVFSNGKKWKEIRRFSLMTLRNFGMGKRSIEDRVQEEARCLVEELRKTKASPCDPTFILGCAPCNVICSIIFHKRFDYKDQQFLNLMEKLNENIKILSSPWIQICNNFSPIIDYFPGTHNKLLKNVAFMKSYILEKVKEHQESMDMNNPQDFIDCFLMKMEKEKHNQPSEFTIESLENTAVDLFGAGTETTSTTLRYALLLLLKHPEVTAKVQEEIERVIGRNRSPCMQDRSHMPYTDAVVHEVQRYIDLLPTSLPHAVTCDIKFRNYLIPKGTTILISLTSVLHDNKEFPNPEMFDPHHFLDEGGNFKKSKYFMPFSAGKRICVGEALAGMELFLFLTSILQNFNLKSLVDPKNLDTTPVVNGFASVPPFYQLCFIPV", "test": "Cytochrome P450 inhibition, 2C9", "type": "in vitro ADME"}, "[9]": {"target": "cytochrome P450 3A4 (Homo sapiens, UniProt P08684)", "sequence (P08684 whole entry)": "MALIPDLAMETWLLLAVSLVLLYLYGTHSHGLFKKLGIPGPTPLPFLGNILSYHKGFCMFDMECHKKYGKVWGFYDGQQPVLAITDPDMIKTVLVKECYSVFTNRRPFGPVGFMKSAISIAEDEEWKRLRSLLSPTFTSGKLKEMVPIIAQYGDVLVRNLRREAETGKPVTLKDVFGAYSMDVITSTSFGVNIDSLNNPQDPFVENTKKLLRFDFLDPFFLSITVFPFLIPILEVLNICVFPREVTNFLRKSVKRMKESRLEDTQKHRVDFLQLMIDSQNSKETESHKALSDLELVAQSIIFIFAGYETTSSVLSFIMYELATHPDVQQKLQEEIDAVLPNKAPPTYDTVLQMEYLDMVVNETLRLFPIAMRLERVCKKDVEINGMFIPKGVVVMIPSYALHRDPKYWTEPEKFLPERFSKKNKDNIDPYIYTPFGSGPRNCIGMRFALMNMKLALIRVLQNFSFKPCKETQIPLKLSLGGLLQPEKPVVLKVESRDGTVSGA", "test": "Cytochrome P450 inhibition, 3A4", "type": "in vitro ADME"}, "[10]": {"target": "cytochrome P450 2C19 (Homo sapiens, UniProt P33261)", "test": "Cytochrome P450 inhibition, 2C19", "type": "in vitro ADME"}, "[11]": {"target": "cytochrome P450 2D6 (Homo sapiens, UniProt P10635)", "sequence (P10635 whole entry)": "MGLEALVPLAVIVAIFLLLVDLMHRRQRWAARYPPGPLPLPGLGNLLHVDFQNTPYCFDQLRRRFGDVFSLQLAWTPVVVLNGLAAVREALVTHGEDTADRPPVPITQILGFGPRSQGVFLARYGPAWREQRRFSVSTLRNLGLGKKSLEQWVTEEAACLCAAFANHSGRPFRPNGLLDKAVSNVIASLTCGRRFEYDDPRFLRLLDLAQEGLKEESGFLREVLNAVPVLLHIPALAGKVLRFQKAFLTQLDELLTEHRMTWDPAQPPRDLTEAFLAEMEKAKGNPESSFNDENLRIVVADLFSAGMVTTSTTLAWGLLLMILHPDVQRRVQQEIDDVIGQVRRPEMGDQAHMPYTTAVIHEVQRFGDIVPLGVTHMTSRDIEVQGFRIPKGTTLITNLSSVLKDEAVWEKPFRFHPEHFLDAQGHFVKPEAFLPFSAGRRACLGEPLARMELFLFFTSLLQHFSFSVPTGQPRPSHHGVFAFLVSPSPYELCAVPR", "test": "Cytochrome P450 inhibition, 2D6", "type": "in vitro ADME", "excerpt": "Table 10 In Vitro and In Vivo Pharmacokinetic Parameters ^a | column: 14"}, "[12]": {"test": "Plasma protein binding, mouse", "type": "in vitro ADME", "details": "read-out: PPB fu, mouse"}, "[13]": {"test": "In vitro microsomal stability, human", "type": "in vitro ADME", "details": "pooled human liver microsomes, pH 7.4, read-out: microsomal CLint, app human"}, "[14]": {"test": "In vitro microsomal stability, rat", "type": "in vitro ADME", "details": "rat liver microsomes, pH 7.4, read-out: microsomal CLint, app rat"}, "[15]": {"test": "In vitro microsomal stability, mouse", "type": "in vitro ADME", "details": "mouse liver microsomes, pH 7.4, read-out: microsomal CLint, app mouse"}, "[16]": {"test": "Mouse pharmacokinetic studies", "details": "male, BalbC"}, "[17]": {"test_system": "P. falciparum", "test": "In vitro resistance selection under sustained drug pressure", "type": "cell-based, Plasmodium falciparum", "details": "sustained drug pressure at 3 × IC90 for 60 days in vitro (data not shown)"}, "[18]": {"target": "HuPI3Kα (Homo sapiens, UniProt P42336)", "sequence (P42336 whole entry)": "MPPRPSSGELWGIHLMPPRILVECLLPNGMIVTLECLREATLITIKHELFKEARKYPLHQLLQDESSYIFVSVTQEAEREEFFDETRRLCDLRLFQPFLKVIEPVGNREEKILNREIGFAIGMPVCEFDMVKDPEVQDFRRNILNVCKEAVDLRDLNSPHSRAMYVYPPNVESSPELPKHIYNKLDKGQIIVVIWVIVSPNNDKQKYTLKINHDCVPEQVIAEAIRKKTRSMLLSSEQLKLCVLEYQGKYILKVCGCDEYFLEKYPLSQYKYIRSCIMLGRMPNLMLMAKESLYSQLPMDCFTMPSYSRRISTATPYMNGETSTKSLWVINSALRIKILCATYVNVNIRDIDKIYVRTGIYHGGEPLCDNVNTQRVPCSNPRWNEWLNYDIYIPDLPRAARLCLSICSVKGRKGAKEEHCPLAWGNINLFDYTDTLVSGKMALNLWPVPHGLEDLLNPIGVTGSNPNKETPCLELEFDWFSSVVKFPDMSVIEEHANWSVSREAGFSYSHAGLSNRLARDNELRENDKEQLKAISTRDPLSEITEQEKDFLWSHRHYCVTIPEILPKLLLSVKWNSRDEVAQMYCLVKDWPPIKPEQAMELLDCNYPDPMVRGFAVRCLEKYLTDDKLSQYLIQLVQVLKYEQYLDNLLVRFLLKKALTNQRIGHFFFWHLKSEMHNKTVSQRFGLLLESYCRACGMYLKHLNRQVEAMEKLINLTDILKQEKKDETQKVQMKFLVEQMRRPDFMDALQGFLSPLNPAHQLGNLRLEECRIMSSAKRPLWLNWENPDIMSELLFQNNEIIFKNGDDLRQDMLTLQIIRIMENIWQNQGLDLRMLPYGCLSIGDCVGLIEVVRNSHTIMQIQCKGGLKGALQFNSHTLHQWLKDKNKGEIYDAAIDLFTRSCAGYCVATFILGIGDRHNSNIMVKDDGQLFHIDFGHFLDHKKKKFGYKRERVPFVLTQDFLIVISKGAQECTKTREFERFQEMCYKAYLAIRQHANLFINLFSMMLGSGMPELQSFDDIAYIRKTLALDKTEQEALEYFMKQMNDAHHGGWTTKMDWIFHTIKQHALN", "sequence (P27986 whole entry partner)": "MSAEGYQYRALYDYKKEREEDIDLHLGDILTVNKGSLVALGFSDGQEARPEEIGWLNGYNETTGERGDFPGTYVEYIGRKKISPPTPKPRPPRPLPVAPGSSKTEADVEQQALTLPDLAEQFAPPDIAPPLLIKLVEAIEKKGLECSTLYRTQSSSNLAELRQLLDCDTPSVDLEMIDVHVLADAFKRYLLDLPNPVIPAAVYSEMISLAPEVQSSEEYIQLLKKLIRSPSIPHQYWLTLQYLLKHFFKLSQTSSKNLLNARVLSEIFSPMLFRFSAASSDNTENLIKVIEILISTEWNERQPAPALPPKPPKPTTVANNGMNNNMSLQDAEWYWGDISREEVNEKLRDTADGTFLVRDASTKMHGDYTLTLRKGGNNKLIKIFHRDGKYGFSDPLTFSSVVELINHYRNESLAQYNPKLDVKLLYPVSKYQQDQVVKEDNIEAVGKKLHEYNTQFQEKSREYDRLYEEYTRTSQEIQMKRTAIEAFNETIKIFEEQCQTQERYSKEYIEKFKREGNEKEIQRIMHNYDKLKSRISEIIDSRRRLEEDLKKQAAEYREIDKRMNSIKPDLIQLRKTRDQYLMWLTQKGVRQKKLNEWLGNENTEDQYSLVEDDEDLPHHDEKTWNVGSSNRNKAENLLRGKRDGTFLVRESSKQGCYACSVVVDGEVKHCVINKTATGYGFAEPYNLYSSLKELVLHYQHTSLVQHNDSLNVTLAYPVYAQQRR", "test": "Human kinase inhibition, HuPI3Kα", "details": "read-out: HuPI3Kα, IC50"}, "[19]": {"target": "HuPI4Kβ (Homo sapiens, UniProt Q9UBF8)", "test": "Human kinase inhibition, HuPI4Kβ", "details": "read-out: HuPI4Kβ, IC50"}, "[20]": {"target": "HuMINK1 (Homo sapiens, UniProt Q8N4C8)", "test": "Human kinase inhibition, HuMINK1", "details": "read-out: HuMINK1, IC50"}, "[21]": {"target": "HuMAP4K4 (Homo sapiens, UniProt O95819)", "test": "Human kinase inhibition, HuMAP4K4", "details": "read-out: HuMAP4K4, IC50"}, "[22]": {"test_system": "β-hematin (βH) formation", "test": "NP-40 mediated cell-free β-hematin assay", "details": "read-out: β-hematin IC50; cell-free NP-40 detergent-mediated assay; n = 2"}, "[23]": {"test": "Solubility, miniaturized shake flask method"}}, "note": "Several values for one entry are separate records, joined by “and”; a condition that tells them apart may be missing. Equal entries are not always repeated. Where two headings read alike, the source gives them in different places.", "data": [{"smiles": "N[C@H]1CCN(c2ccnc3ccc(-c4ccc(C(F)(F)F)nc4)nc23)C1", "note": "[Compound 14, (3S)-1-[6-[6-(Trifluoromethyl)pyridin-3-yl]-1,5-naphthyridin-4-yl]pyrrolidin-3-amine]", "values": [{"measurement": "IC50", "setting": "[1]", "value": "1210 ± 220", "unit": "nM"}, {"measurement": "IC50", "setting": "[2]", "value": "31 ± 3", "unit": "nM"}, {"measurement": "IC50", "setting": "[3]", "value": "87 ± 30", "unit": "nM"}, {"measurement": "IC50", "setting": "[4]", "value": 12000, "unit": "nM"}, {"measurement": "IC50", "setting": "[5]", "value": "46 ± 20", "unit": "nM"}, {"measurement": "IC50", "setting": "[6]", "value": "41 ± 10", "unit": "nM"}, {"measurement": "IC50", "setting": "[7]; 72 h, read-out: ABS IC50 for PfPI4K cKD, N=1, +aTc, experiment N=1, +aTc (500 nM, control conditions), 72 hours", "value": 23, "unit": "nM"}, {"measurement": "IC50", "setting": "[7]; 72 h, read-out: ABS IC50 for PfPI4K cKD, N=1, no aTc, experiment N=1, no aTc (PI4K knockdown), 72 hours", "value": 25, "unit": "nM"}, {"measurement": "IC50", "setting": "[7]; 72 h, read-out: ABS IC50 for PfPI4K cKD, N=2, +aTc, experiment N=2, +aTc (500 nM, control conditions), 72 hours", "value": 37, "unit": "nM"}, {"measurement": "IC50", "setting": "[7]; 72 h, read-out: ABS IC50 for PfPI4K cKD, N=2, no aTc, experiment N=2, no aTc (PI4K knockdown), 72 hours", "value": 38, "unit": "nM"}, {"measurement": "IC50", "setting": "[7]; 72 h, read-out: ABS IC50 for PfPI4K cKD, N=3, +aTc, experiment N=3, +aTc (500 nM, control conditions), 72 hours", "value": 21, "unit": "nM"}, {"measurement": "IC50", "setting": "[7]; 72 h, read-out: ABS IC50 for PfPI4K cKD, N=3, no aTc, experiment N=3, no aTc (PI4K knockdown), 72 hours", "value": 20, "unit": "nM"}, {"measurement": "IC50", "setting": "[7]; read-out: ABS IC50 for PfPI4K cKD, Mean + SD, +aTc, mean of N=3, +aTc (control conditions)", "value": "27 ± 9", "unit": "nM"}, {"measurement": "IC50", "setting": "[7]; read-out: ABS IC50 for PfPI4K cKD, Mean + SD, no aTc, mean of N=3, no aTc (PI4K knockdown)", "value": "28 ± 9", "unit": "nM"}, {"measurement": "ABS IC50 for PfPI4K cKD, N=1, fold shift", "setting": "[7]; experiment N=1, +aTc vs no aTc", "value": 0.90, "unit": "fold"}, {"measurement": "ABS IC50 for PfPI4K cKD, N=2, fold shift", "setting": "[7]; experiment N=2, +aTc vs no aTc", "value": 0.98, "unit": "fold"}, {"measurement": "ABS IC50 for PfPI4K cKD, N=3, fold shift", "setting": "[7]; experiment N=3, +aTc vs no aTc", "value": 1.04, "unit": "fold"}, {"measurement": "ABS IC50 for PfPI4K cKD, mean fold shift (fold decrease in IC50 on knockdown)", "setting": "[7]; mean, +aTc vs no aTc", "value": 0.97, "unit": "fold"}, {"measurement": "IC50", "setting": "[8]", "value": "> 20000", "unit": "nM"}, {"measurement": "IC50", "setting": "[9]", "value": "> 20000", "unit": "nM"}, {"measurement": "IC50", "setting": "[10]", "value": 18000, "unit": "nM"}, {"measurement": "IC50", "setting": "[11]", "value": "> 20000", "unit": "nM"}, {"measurement": "fraction unbound at 5 h, 5 µM", "setting": "[12]", "value": 0.08}, {"measurement": "CLint scaled at 1 µM", "setting": "[13]", "value": "< 13", "unit": "mL/min/kg"}, {"measurement": "CLint scaled at 1 µM", "setting": "[14]", "value": "< 21", "unit": "mL/min/kg"}, {"measurement": "CLint scaled at 1 µM", "setting": "[15]", "value": "< 46", "unit": "mL/min/kg"}, {"measurement": "in vivo mouse CLu", "setting": "[16]", "value": 135, "unit": "mL/min/kg"}, {"measurement": "Vd at 24 h", "setting": "[16]; in vivo, iv, 2 mg/kg", "value": 4.4, "unit": "L/kg"}, {"measurement": "half-life at 24 h", "setting": "[16]; in vivo, iv, 2 mg/kg", "value": 6.3, "unit": "h"}, {"measurement": "bioavailability at 24 h", "setting": "[16]; in vivo, po", "value": 27, "unit": "%"}, {"measurement": "in vivo mouse CLb", "setting": "[16]; iv, 2 mg/kg", "value": 10.80, "unit": "mL/min/kg"}, {"measurement": "Attempts to raise mutants", "setting": "[17]", "value": "not successful"}, {"measurement": "IC50", "setting": "[18]", "value": 5200, "unit": "nM"}, {"measurement": "IC50", "setting": "[19]", "value": "> 10000", "unit": "nM"}, {"measurement": "IC50", "setting": "[20]", "value": "> 10000", "unit": "nM"}, {"measurement": "IC50", "setting": "[21]", "value": "> 10000", "unit": "nM"}, {"measurement": "IC50", "setting": "[22]", "value": "33000 nM and < 60000 nM"}, {"measurement": "solubility at 20 h", "setting": "[23]; PBS, pH 6.5", "value": 200, "unit": "µM"}, {"measurement": "solubility at 20 h", "setting": "[23]; aqueous solution", "value": 200, "unit": "µM"}]}]}
